Like-named read-outs stand apart in the source and are kept apart here.
Experiments:
[1] = Inflammation and morbidity in DSS-treated mice infected with LF82; assay type: in vivo, mice (C57BL/6); conditions: AG or tungstate in water, NAC in chow
Description: The development of intestinal inflammation can be followed as described below. The severity of inflammatory changes in the cecum and the colon are assessed by several independent approaches at three, five and seven days after inoculation. First, the relative transcript levels of genes encoding neutrophil chemoattractants (i.e., genes encoding the CXC-chemokines Kc and the Mip2) and iNOS (Nos2) are determined (see, e.g., 62, 64). Second, to monitor, on the protein level, how inflammatory markers increase after DSS treatment, expression levels of iNOS and myeloperoxidase (MPO) are analyzed in protein samples extracted from the colonic mucosa by Western blot using anti-iNOS antibodies (Abcam), anti-MPO antibodies (R&D systems), and anti-tubulin as a loading control (64). Third, concentrations of the neutrophil-specific enzyme MPO in fecal pellets are measured by ELISA. This can serve as an indicator for the degree of neutrophil transmigration into the intestinal lumen over time (6, 42). Finally, pathological changes in the colonic mucosa are assessed through standardized, blinded scoring of formalin-fixed, hematoxylin and eosin-stained sections by a veterinary pathologist (64).

[2] = tested on: nitrate/nitrite; assay: Nitrate/nitrite concentration in the cecal mucus of DSS-treated mice; assay type: in vivo; conditions: AG in drinking water
From the text: Bars represent geometric means±standard error. *, P<0.05; **, P<0.01.
To determine whether the availability of nitrate increases during DSS colitis, the concentration of nitrate/nitrite in the colonic mucus of mock-treated and DSS-treated mice was examined. […] The results supported the idea that the inflammatory host response generates respiratory electron acceptors in the large bowel.
(§1) Since the fitness advantage conferred by nitrate respiration was abrogated in Nos2-deficent mice (FIG. 2), the ability of inhibiting nitrate respiration in vivo was tested by supplementing the drinking water of mice with the iNOS inhibitor aminoguanidine (AG).

[3] = tested on: E. coli Nissle 1917 and narG napA narZ mutant; assay: Competitive infection of DSS-treated mice with E. coli Nissle 1917 and its nitrate respiration-deficient mutant; assay type: in vivo; conditions: AG in drinking water, five days after infection
Description: Mice were mock-treated or treated with dextran sulfate sodium (DSS) or DSS+aminoguanidine (AG) and infected with equal mixtures of the indicated E. coli strains. Five days after infection, the ratio of wild-type (wt) and mutant recovered from colon contents was determined (competitive index). Bars represent geometric means±standard error.
Next, mock-treated mice (C57BL/6) or mice with DSS-induced colitis were inoculated with an equal mixture of E. coli Nissle 1917 and its isogenic nitrate respiration-deficient mutant (competitive infection design). Wild type and nitrate respiration-deficient mutant strains colonized the intestine of normal mice poorly, but similar numbers of each strain were recovered from colon contents (FIG. 2). […] Thus, nitrate respiration enhanced the fitness of E. coli in the inflamed gut.
as §1

[4] = tested on: Tnfa; assay: Tnfa transcript levels in the cecal mucosa of DSS-treated mice (real-time PCR); assay type: in vivo; conditions: conventional mice, 4% DSS for 9 days
From the text: (§2) (13A-C) Conventional mice received 4% DSS alone (DSS) or in combination with sodium tungstate (DSS+Na2WO4) for 9 days. (13D) Germ-free mice received 1% DSS or 1% DSS+Na2WO4 for five days. (13A) Average histopathology score from the cecum.
(§3) This reduction was remarkable, because DSS treatment induces cecal inflammation by a mechanism that is only partially dependent on the presence of microbiota (10). In other words, DSS treatment causes inflammation in germ-free mice, but inflammation is exacerbated by the presence of microbiota. Thus, by inhibiting the microbiota-dependent component of inflammation, one can only expect to achieve a reduction in inflammation, but not a resolution of inflammation. Thus, given the marked pathology observed in DSS-treated germ-free mice (10), the reduction of cecal pathology after tungsten treatment was remarkable.

[5] = tested on: Kc; assay: Kc transcript levels in the cecal mucosa of DSS-treated conventional mice (real-time PCR); assay type: in vivo; conditions: 4% DSS for 9 days
From the text: as §2, §3

[6] = oral, 100 mg twice a day for 6 weeks, cited from earlier work
[7] = Histopathology score of the cecum in DSS-treated conventional mice; assay type: in vivo; conditions: 4% DSS for 9 days, blinded scoring
From the text: as §2, §3

[8] = tested on: facultative anaerobic bacteria; assay: Microbial community profiling in mouse colitis models (16S rRNA gene sequences); assay type: in vivo; conditions: mice with severe colitis (DSS or oxazolone) treated with tungstate
From the text: To investigate whether changes in the microbial communities that develop during inflammation are due to anaerobic respiration, the temporal dynamics of the entire gut community can be monitored in mouse models of colitis. In particular, colitis can be induced by DSS treatment or hapten-induced (oxazolone-treatment) in wild type and Nos2-deficient mice, including those that are additionally exposed to tungstate, AG, or NAC. The experiments can be performed as follows.
Wild type mice (C57BL/6) and Nos2-deficient mice are co-housed for two weeks to reduce the variation in the microbial community structure prior to inducing inflammation. Feces are collected from all animals for DNA isolation to establish a baseline of the microbiota composition at the beginning of the experiment. Six mice from each mouse strain (C57BL/6 mice or Nos2-deficient mice) are euthanized to isolate bacterial DNA from cecal and colon contents and to establish a baseline for inflammatory host responses using the methods described above (see, Section 5). Groups of mice from each mouse strain (e.g., C57BL/6 mice or Nos2-deficient mice) are treated with 4% DSS in drinking water or are “mock-treated” (i.e., mice will receive drinking water without DSS). […]
The development of intestinal inflammation is monitored using methods described above (see, Section 5). […]

[9] = tested on: AIEC strain LF82; conditions: DSS-treated mice infected with LF82, tungstate in water
Description: Groups of 6 DSS-treated mice (C57BL/6) were provided with water or water supplemented with AG or tungstate and fed regular chow or chow supplemented with NAC. Mice were then inoculated with wild-type LF82 or sterile medium (mock-infection) and organs were collected at three, five and seven days after infection.
In addition, colony forming units (CFU) of E. coli are determined by spreading homogenates of colon contents on plates containing the appropriate antibiotics (all LF82 derivatives are marked with a kanamycin resistance cassette inserted downstream of the lac operon).

[10] = tested on: Kc; assay: Kc transcript levels in the cecal mucosa of DSS-treated germ-free mice; assay type: in vivo; conditions: 1% DSS, 5 days after the beginning of DSS treatment
Description: as §2
The key experiment to distinguish between these two possibilities is to test whether tungstate treatment reduces inflammation in germ-free mice. To this end, groups of four germ-free mice were treated with 1% DSS, 1% DSS+sodium tungstate, or drinking water without supplementation.

[11] = tested on: E. coli Nissle 1917 wild-type and moaA mutant; assay: DSS colitis model, colonization with E. coli indicator strains (wild-type and moaA mutant, 1:1); assay type: in vivo
From the text: (§4) To determine whether the administration of soluble tungsten (W) salts can abolish anaerobic respiration and thus blunt the bloom of Enterobacteriaceae in vivo, a murine model of chemically-induced colitis, the dextran sulfate sodium (DSS) colitis model, was employed. Oral administration of DSS in the drinking water induces a vigorous intestinal inflammatory response that is accompanied by a bloom of commensal Enterobacteriaceae (3). Groups of C57BL/6 mice received DSS-supplemented (2 or 3%) drinking water or received DSS-supplemented (2 or 3%) drinking water with sodium tungstate (0.2%) added. After onset of inflammation (4 days after start of the treatment), mice were intragastrically inoculated with a 1:1 mixture of the E. coli Nissle 1917 wild-type and an isogenic moaA mutant deficient for molybdopterin cofactor biosynthesis. Utilization of these non-pathogenic indicator strains allows a determination of the growth advantage conferred through anaerobic respiration by comparing colonization with the wild-type strain with an anaerobic respiration-deficient mutant (moaA mutant) (3). 5 days after inoculation of mice, animals were euthanized and colonization with the E. coli indicator strains determined by cultivation on selective media (each of the strains is marked with a different antibiotic resistance gene) (FIG. 10).
To further test the efficacy of tungstate treatment, E. coli indicator strains that were either proficient for anaerobic respiration (E. coli Nissle 1917 wild-type) or deficient for nitrate respiration, DMSO respiration, and TMAO respiration due to a mutation in one of the molybdopterin cofactor biosynthesis genes (E. coli Nissle 1917 moaA mutant) were used. Groups of mice with DSS-induced colitis were inoculated with an equal mixture of both E. coli indicator strains (i.e., wild-type and moaA mutant) and received either regular water (vehicle control) or drinking water containing 2 g/l sodium tungstate (Na2WO4×2H2O; Sigma-Aldrich, St. Louis, Mo., USA) to receive a calculated average dose of 130 mg/kg/day (assuming 2.6 ml of water intake per day for each animal). These experiments determined whether anaerobic respiration would provide a fitness advantage upon the E. coli wild-type over the moaA mutant in the inflamed intestine of DSS-treated mice. Furthermore, if tungstate treatment would inhibit anaerobic respiration, these experiments determined whether this fitness advantage would be eliminated and both strains would be recovered at a 1:1 ratio. In other words, the use of E. coli indicator strains as described herein enabled the determination of whether tungstate treatment would block growth by anaerobic respiration in vivo.

[12] = Body weight in the DSS-colitis model; assay type: in vivo, C57BL/6 mice; conditions: 3% DSS, tungstate 0.2% in drinking water, after 8 days of DSS treatment
From the text: as §4, with “10). […]” for “10).”

[13] = tested on: nitrate reductase; assay: Nitrate reductase activity in E. coli Nissle 1917 cultures (modified Griess assay); assay type: cell-based; conditions: LB broth with 40 mM nitrate, microaerobic, 3 h at 37° C.; versus mock-treated cultures
From the text: In E. coli, the respiratory reductases for nitrate, DMSO and TMAO as well as the formate dehydrogenases FdnG and FdoG contain molybdenum (Mo) as a key catalyst for electron transfer reactions (7). The functions of FdnG and FdoG are linked to respiration, because these two formate dehydrogenases couple respiratory electron acceptors to the electron donor formate, a fermentation end product present in the large intestine. Formate dehydrogenases and respiratory reductases contain Mo within a molybdopterin cofactor. Tungsten (W) has chemical properties similar, but not identical, to Mo. […] To test whether the addition of W (as the soluble sodium salt Na2WO4; sodium tungstate) to bacterial growth media can inhibit anaerobic nitrate respiration, aliquots of LB broth supplemented with 40 mM nitrate and varying concentrations of tungstate were inoculated with the E. coli Nissle 1917 wild-type strain and incubated under microaerobic conditions for 3 h at 37° C. (3). Nitrate reductase activity was assayed using a modified Griess assay (9) (FIG. 9).

[14] = tested on: neutrophils; conditions: in vitro; cited from earlier work
[15] = tested on: neutrophils; conditions: in vivo; cited from earlier work
[16] = sodium tungstate 0.2% in drinking water, DSS 2 or 3%, 5 days after inoculation

**Q.** With `N=C(N)NN` [AG, aminoguanidine] as the compound, how does the inflammation and morbidity [1] read?
**A.** intermediate effect

**Q.** And the “availability of nitrate/nitrite in the large bowel” value [2]?
**A.** markedly reduced

**Q.** And the “fitness advantage conferred by nitrate respiration (competitive index)” value [3]?
**A.** abrogated the fitness advantage

**Q.** With `[Na+].[Na+].[O]=[W](=[O])([O-])[O-]` [sodium tungstate] as the compound, how does the “transcript levels of Tnfa in the cecal mucosa” value [4] read?
**A.** blunting of transcript levels

**Q.** And the “induction of Kc in the cecal mucosa” value [5]?
**A.** abrogated induction

**Q.** And the body weight ([6]; human obesity)?
**A.** did not reduce body weight

**Q.** What about the safety parameters ([6]; human) of the same compound?
**A.** not associated with abnormal safety parameters

**Q.** What about the “overall pathology score of the cecal mucosa” value [7] of the same compound?
**A.** significant (P<0.05) reduction

**Q.** What about the inflammation and morbidity [1] of the same compound?
**A.** reducing inflammation and morbidity

**Q.** And the “increased abundance of facultative anaerobic bacteria associated with inflammation” value [8]?
**A.** not observed

**Q.** What about the “growth of AIEC by anaerobic respiration” value [9] of the same compound?
**A.** reduction in the growth of AIEC

**Q.** What about the “levels of pro-inflammatory cytokines (Kc transcript)” value [10] of the same compound?
**A.** did not reduce

**Q.** What about the “absolute numbers of E. coli recovered from colon contents (bloom)” value ([11]; DSS+Na2WO4 versus DSS alone, FIG. 12B) of the same compound?
**A.** prevented facultative anaerobic bacteria from blooming

**Q.** What about the “competitive index (ratio of wild-type to moaA mutant) recovered from colon contents” value ([11]; DSS-induced colitis, drinking water with 2 g/l sodium tungstate (130 mg/kg/day)) of the same compound?
**A.** both strains were recovered in equal numbers

**Q.** What about the “recovery of wild-type versus moaA mutant from colon content” value [11, 16] of the same compound?
**A.** both strains were recovered at similar numbers

**Q.** And the “total number of E. coli indicator strains recovered from colon content” value [11, 16]?
**A.** significantly diminished

**Q.** And the body weight [12]?
**A.** > 90 % of starting weight

**Q.** What about the “tungstate concentration at which nitrate reductase activity was significantly reduced” value [13] of the same compound?
**A.** exceeding 10 ng/ml

**Q.** Which inflammation and morbidity [1] does the source give for `CC(=O)N[C@@H](CS)C(=O)O` [NAC, N-acetylcysteine] here?
**A.** intermediate effect

**Q.** What about the “concentration that almost completely inhibits the oxidative response of neutrophils to E. coli” value [14] of the same compound?
**A.** 76 mM

**Q.** What about the “oxidative burst activity of neutrophils” value [15] of the same compound?
**A.** suppress the oxidative burst activity
